From US8066979B1, “Attractants and repellents for the tropical root weevil Diaprepes Abbreviatus” (The United States of America as represented by the …, priority 2007, dated 2011)

Legend:
[1] = system: D. abbreviatus male antenna; assay: Gas chromatography-linked electroantennogram detection (GC-EAD); parameters: species or system Diaprepes abbreviatus; settings: for antennal response (EAD) to constituents of citrus leaf headspace: SPME collection of citrus leaf volatiles, HP-5 column
Source text: Gas chromatography-linked electroantennogram detection (GC-EAD): The antenna of the insect was employed as a detector in tandem with a high resolution gas chromatography system (GC, Hewlett Packard, […]) as in Dickens (Dickens, J. C., Agr. Forest Entomol., 1: 47-54 (1999)) to locate biologically active constituents in volatile collections of plants and candidate chemicals. An adult weevil antenna was mounted between two glass capillaries. Silver wires were inserted into the ends of both glass capillaries. One glass capillary filled with 0.1 M NaCl served as recording electrode holding the tip of the flagellum. The other capillary filled with electrode gel (Spectra 360, Parker Laboratories, USA) served as ground electrode holding the proximal end of the pedicel. The antenna was bathed in a humidified air-stream (60% RH, 23±2° C.) delivered at 30 cm/s (Stimulus Controller CS-05, Syntech) via a stainless steel tube (5 mm internal diameter) whose outlet was approximately 0.5 cm from the preparation. The electrophysiological signal was amplified and conditioned prior to storage and analyses using a computer equipped with GC-EAD 2.3 software (Syntech). Samples were injected into the gas chromatograph with a septum-purged packed column injector and a flame ionization detector (FID) at 245° C. equipped with one of the following J&W Scientific capillary columns: stationary phase DB-[…], high polarity, film thickness 0.25 μm, length 30 m, i.d. 0.248 mm or HP-5, low polarity, film thickness 0.25 μm, length 30 m, i.d. 0.251 mm. After an initial temperature of 50° C., which was held for 2 min following injection, the temperature of the GC oven was increased at 15° C./min to 235° C., which was held for 8 min. The enantiomers of linalool present in the odor of citrus were separated for their identification using a β-cyclodextrin column (stationary phase HP-Chiral-20B, mid-polar polarity, film thickness 0.25 μm, length 30 m, i.d. 0.252 mm). Following the injection of the linalool enantiomers, the initial temperature of 50° C. was held for 2 min following injection and then increased at 3° C./min to 180° C. Carrier gas (He) flow was 50 cm/s. The effluent from the column was split using a Gerstel GraphPack-3D/2 splitter with a ratio of approximately 1 part to the FID and 4 parts to the electroantennogram detector (EAD). The latter was swept by the humidified air-stream to the electrophysiological preparation from a heated transfer line (Syntech) at 245° C. Volatiles that elicited responses on the antenna were identified by GC-MS (Dickens, J. C., et al., J. Exp. Biol., 4: 309-314 (2002)).

[2] = system: D. abbreviatus antennae; assay: Electroantennography (EAG) recordings; parameters: species or system Diaprepes abbreviatus; settings: for antenna sensory threshold: amount in stimulus cartridge; for EAGs compared on the same antenna (enantiomer/racemate comparison): n=3, paired Wilcoxon test; for Mean EAG of the weevil antenna to the standard: diluted 1000-fold in hexane, mean±SE, n=30; for EAG dose-response curve at the two higher stimulus loads: 10 μg and 100 μg
Method: Electroantennography (EAG) recordings: For EAGs, an adult weevil antenna was mounted between two electrodes as described above for GC-EAD recordings. EAGs were analyzed using EAG 2.3 software (Syntech).
The following chemicals were serially diluted (ca. 0.01-100 μg) in hexane and tested separately on the antenna: cis-3-hexen-1-ol, trans-2-hexen-1-ol, (±)-linalool, (R)-(−)-linalool, (R)-(+)-citronellal, (S)-(−)-citronellal, cis-geraniol (nerol), trans-geraniol, cis-citral (neral), trans-citral (geranial), and carvacrol. Citral isomers were tested together in a blend. In order to compare activity of (±)-linalool and (R)-(−)-linalool ([…] was not available) as well as (R)-(+)-citronellal and (S)-(−)-citronellal, the enantiomers were tested alternatively on the same antenna of female and male weevils. Solvents and synthetic chemicals used in this investigation were ≧97% pure and acquired from Aldrich, Fisher Scientific, Fluka, and Sigma. Nomenclature of chemicals in the text follows that employed by NIST (http://webbook.nist.gov/chemistry/). One microliter of each solution was deposited on a small filter paper strip (0.8×2 cm; Whatman) that was inserted into a Pasteur pipette (cartridge) after solvent evaporation. The tip of the pipette was introduced via a hole in the wall of the stainless steel tube at 3 cm from the preparation. An air current (0.5 s duration, 50 cm/s airspeed; Air Velocity Meter 441S, Kurtz Instruments, USA) swept the chemicals evaporating from the filter paper from the cartridge (Stimulus Controller CS-05, Syntech) to the air-stream in which the antenna was bathed. Interstimulus time intervals of 2-3 min allowed for recovery of the antennal receptors. To allow for changes in sensitivity of an antenna preparation over time, stimulation with a standard compound preceded and followed each stimulus tested. A puff of 1 μg of (R)-(−)-linalool served as standard for EAGs with cis-3-hexen-1-ol and trans-2-hexen-1-ol, and 1 μg of cis-3-hexen-1-ol for EAGs with other compounds. A solvent control consisted of 1 μl of hexane on filter paper. EAGs were standardized by calculating the percent response of the experimental odorant relative to the mean of two responses to the standard preceding and following its presentation.
(§1) Statistical analysis: EAGs between (±)-linalool and (R)-(−)-linalool as well as between (R)-(+)-citronellal and (S)-(−)-citronellal on the same antenna were compared using the paired Wilcoxon test (Sokal, R. R., and F. J. Rohlf, Biometry, 3rd ed. Freeman, New York (1995)). Relative and absolute proportions of volatiles released by undamaged and damaged citrus leaves were also compared using the paired Wilcoxon test. Insect choices between test and control T-track olfactometer extremes were assessed for significant differences by the hypothesis on binomial proportions based on the standard normal approximation (Brase, C. H., and C. P. Brase, Understanding statistics, 1983, DC Health and Co, Lexington, Mass.). Other behaviors were analyzed using the paired Wilcoxon test and Chi-square test. Statistical analysis was performed using R (version 2.4.0, Vienna, Austria; Ihaka, R., and R. […], J. Comput. Graph. Stat., 5: 299-314 (1996)).

[3] = system: D. abbreviatus adults; assay: Open T-track dual choice olfactometer behavioral experiments; format: in vivo, Diaprepes abbreviatus; parameters: unit not given here; settings: stereotyped behavior in T-track olfactometer
Source text: Behavioral experiments: An open T-track dual choice olfactometer described by Dickens (1999) was modified as follows. A container (diameter 11 cm, height 8 cm) with petrolatum on its border, to prevent the escape of insects that were placed in its interior, was placed at the bottom of the vertical “T”. As D. abbreviatus is reluctant to move for long periods (some times hours) after being manipulated, 20-30 insects of the same sex were placed in the container in order to increase chances of observing insects walking. When more than one insect started to climb the “T” tube, the experiment was discarded. Stereotyped behaviors performed by the weevil were recorded using a video camera (Digital Handycam DCR-TVR30).
The following compounds diluted in 25 μl of mineral oil placed on a 4.25 cm filter paper (No. 2, Whatman, England) in a odour-delivery bottle were tested separately in the olfactometer (doses indicated in parenthesis): (±)-linalool (25 μg), (R)-(+)-citronellal (25 μg), carvacrol (25 μg) and cis-3-hexen-1-ol (25 μg). The following blends were also tested: (±)-linalool (25 μg)+carvacrol (2.5 μg) and (±)-linalool (25 μg)+carvacrol (2.5 μg)+cis-3-hexen-1-ol (25 μg). An equal amount of the mineral oil solvent on filter paper was placed in the other side of the olfactometer. In order to observe the behaviour of insects to solvent alone, mineral oil was placed in both odour-delivery bottles. Responses of forty insects (20 females and 20 males) were recorded for each stimulus.
as §1

[4] = at the injected amounts 1 ng and 10 ng

CC(C)=CCCC(C)CC=O (centres unmarked) [citronellal]
antennal response (EAD) to constituents of citrus leaf headspace [1]: EAGs were recorded

CC(C)=CCC/C(C)=C/CO [trans-geraniol]
antennal response (EAD) to injected synthetic compound [1, 4]: no responses | increase in EAG response from 1 to 10 μg in the stimulus cartridge [2]: did not share such a pattern | increase in magnitude of EAGs with increments in amount dosed in the stimulus cartridge ([2]; females): EAG increase was not pronounced | antenna sensory threshold ([2]; females): around 0.1 μg | increase in magnitude of EAGs with increments in amount dosed in the stimulus cartridge ([2]; males): no significant increases

CC(C)=CCC/C(C)=C\C=O [cis-citral, cis-citral (neral)]
antennal response (EAD) to injected synthetic compound [1, 4]: no responses

CC(C)=CCC[C@@H](C)CC=O [(R)-(+)-citronellal]
hesitation ([3]; females): 95 | reaching ([3]; females): 62.5 | rectifying ([3]; females): 15 | hesitation ([3]; males): 85 | reaching ([3]; males): 52.5 | rectifying ([3]; males): 5 | EAGs compared on the same antenna (enantiomer/racemate comparison) ([2]; females): larger than for (S)-(−)-citronellal | EAGs compared on the same antenna (enantiomer/racemate comparison) ([2]; males): larger than for (S)-(−)-citronellal

CCC/C=C/CO [trans-2-hexen-1-ol]
antennal response (EAD) to injected synthetic compound [1, 4]: EAGs were recorded | antenna sensory threshold ([2]; females): around 0.1 μg | antenna sensory threshold ([2]; males): around 0.1 μg

C=CC(C)(O)CCC=C(C)C (centres unmarked) [linalool]
antennal response (EAD) to constituents of citrus leaf headspace [1]: EAGs were recorded

CC(C)=CCC/C(C)=C\CO [nerol, cis-geraniol (nerol)]
antennal response (EAD) to constituents of citrus leaf headspace [1]: EAGs were recorded | antennal response (EAD) to injected synthetic compound [1, 4]: no responses | increase in EAG response from 1 to 10 μg in the stimulus cartridge [2]: did not share such a pattern

CC/C=C\CCO [cis-3-hexen-1-ol]
antennal response (EAD) to injected synthetic compound [1, 4]: EAGs were recorded | hesitation ([3]; females): 75 | reaching ([3]; females): 12.5 | rectifying ([3]; females): 10 | hesitation ([3]; males): 85 | reaching ([3]; males): 30 | rectifying ([3]; males): 12.5 | Mean EAG of the weevil antenna to the standard [2]: 1.605±0.200 mV | antenna sensory threshold ([2]; females): around 0.1 μg | antenna sensory threshold ([2]; males): around 0.1 μg

CC(C)=CCC[C@H](C)CC=O [(S)-(−)-citronellal]
antenna sensory threshold ([2]; males): around 0.1 μg

CC(C)=CCC/C(C)=C/C=O [trans-citral, trans-citral (geranial)]
antennal response (EAD) to constituents of citrus leaf headspace [1]: EAGs were recorded | antennal response (EAD) to injected synthetic compound [1, 4]: no responses

C=C[C@](C)(O)CCC=C(C)C [(R)-(−)-linalool]
Mean EAG of the weevil antenna to the standard [2]: 1.750±0.311 mV | EAGs compared on the same antenna (enantiomer/racemate comparison) ([2]; females): did not differ significantly | antenna sensory threshold ([2]; females): around 0.1 μg | EAGs compared on the same antenna (enantiomer/racemate comparison) ([2]; males): did not differ significantly | antenna sensory threshold ([2]; males): around 0.1 μg

Cc1ccc(C(C)C)cc1O [carvacrol]
antennal response (EAD) to injected synthetic compound [1, 4]: EAGs were recorded only for the two former chemicals | hesitation ([3]; females): 90 | reaching ([3]; females): 45 | rectifying ([3]; females): 32.5 | hesitation ([3]; males): 95 | reaching ([3]; males): 45 | rectifying ([3]; males): 47.5 | increase in EAG response from 1 to 10 μg in the stimulus cartridge [2]: did not share such a pattern | EAG dose-response curve at the two higher stimulus loads ([2]; females): reached saturation | increase in EAGs in response to serial dilutions ([2]; females, from 0.01 μg to 1 μg): more pronounced than for males | antenna sensory threshold ([2]; females): around 0.1 μg | EAG dose-response curve at the two higher stimulus loads ([2]; males): continued to increase

CC(C)=CCCC(C)=CC=O [citral (cis and trans), citral]
antenna sensory threshold ([2]; females): around 0.1 μg | antenna sensory threshold ([2]; males): around 0.1 μg

CC(C)=CCCC(C)CC=O (racemic) [(±)citronellal]
antennal response (EAD) to injected synthetic compound ([1]; 1 ng injected, the lowest dose): disappeared | antennal response (EAD) to injected synthetic compound ([1]; 10 ng injected): persisted

C=CC(C)(O)CCC=C(C)C (racemic) [(±)-linalool]
antennal response (EAD) to injected synthetic compound ([1]; 10 ng injected): persisted | hesitation ([3]; females): 80 | reaching ([3]; females): 30 | rectifying ([3]; females): 22.5 | hesitation ([3]; males): 82.5 | reaching ([3]; males): 52.5 | rectifying ([3]; males): 25 | EAGs compared on the same antenna (enantiomer/racemate comparison) ([2]; females): did not differ significantly | EAGs compared on the same antenna (enantiomer/racemate comparison) ([2]; males): did not differ significantly
